“And” between values parts separate entries of the source, which are not always exact repeats. Equal entries are not always repeated. Marks after values point to notes of the source that are not given here.
Tested on: maize B55 haploid seedlings
Test: nitrous oxide gas treatment at 3–8 leaf stages, B55 haploids (Example 3)
Settings: for Ear (open pollinated): No. of fertile sectors /ear / Ear (open pollinated): No. of kernels produced /ear / Ear (open pollinated): Plants with fertile sectors % / No. of tassel branch Average / Plant height (cm) Average / Tassel: No. of fertile anthers extruded/tassel / Tassel: No. of fertile sectors/tassel / Tassel: Plants with fertile sectors % / Ear (open pollinated): Plants with fertile sectors No. / Tassel: Plants with fertile sectors No. / No. of plants Survived: 600 kPa, 2 days
Excerpt: Leaf stages were defined as follows, At the 3 leaf stage, there are three elongated leaves and the tip of the fourth leaf appears at the center of the leaf whorl. This stage is defined as V2 according to Ritchie et al. (1997). At the 8 leaf stage, there are 8 elongated leaves and the tip of the 9th and 10th leaves appear at the center of the leaf whorl (late V5 stage). At the 6 leaf stage, six elongated leaves are observable, and the tip of seventh leaf appears at the leaf whorl (late V4 or early V5 stage). Nine to sixteen haploid plants were treated at each stage using a large air tight iron chamber (FIG. 3). […] Moistened calcium hydroxide (50 g) wrapped in a paper towel was included to absorb carbon dioxide that is produced by the seedlings, as carbon dioxide at high concentration will injure the seedlings during the treatment. The soil of the pots was dried prior to treatment to prevent root injuries. […] The gas was introduced slowly into the chamber over a 10 minutes time frame.
After the treatment, seedlings were transplanted into larger pots, and grown in a greenhouse. A relatively cool temperature (below 25° C.) was maintained to permit the appropriate development of doubled sectors. At flowering, the ears were cross pollinated by an appropriate pollen source to reveal all the fertile sectors on the ears. On the treated plants, plant height (cm), tassel size (cm), number of tassel branches, ear length (cm), the number of fertile sectors on a tassel and an ear, the number of anthers on a tassel, and the number of kernels on an ear were recorded.
Analyses of variance and Duncan's Multiple Range Tests were performed to determine the effects of treatments on the plant height (cm), tassel size (cm), and ear length (cm). Chi square tests were used to determine the effects of treatments upon the proportion of plants that developed fertile tassel and ear sectors. The ratios of untreated plants with fertile sectors were used to estimate the significance of the ratio of treated plants with fertile sectors.
Nonparametric tests were performed to compare the distributions. The primary test was the Kruskal-Wallis test. In the initial tests, the null hypothesis considered was that the distributions would be the same for each treatment and control. If the null hypothesis was rejected (P<0.05), then pair wise comparisons of each treatment to the control using Dunn's method were conducted. The tassel branch number was low incidence count data and was analyzed using the same nonparametric tests mentioned above.

In the case of `[N-]=[N+]=O` [nitrous oxide gas, nitrous oxide], the “Ear (open pollinated): No. of fertile sectors /ear” value (“Ear … No. of fertile sectors /ear” below) (3 leaf stage) is reported as 1.1 /ear, the “Ear (open pollinated): No. of kernels produced /ear” value (“Ear … No. of kernels produced /ear” for short) (3 leaf stage) is reported as 49.0* /ear and the “Ear (open pollinated): Plants with fertile sectors %” value (shortened to “Ear … with fertile sectors %”) (3 leaf stage) is reported as 67%. The “No. of tassel branch Average” value (3 leaf stage) was 18.8*, the “Plant height (cm) Average” value (3 leaf stage) was 183 cm·days and the “Tassel: No. of fertile anthers extruded/tassel” value (3 leaf stage) was 35.6 /tassel. The “Tassel: No. of fertile sectors/tassel” value (3 leaf stage) was 1.1 /tassel, the “Tassel: Plants with fertile sectors %” value (3 leaf stage) was 67% and the “Ear (open pollinated): Plants with fertile sectors No.” value (shortened to “Ear … with fertile sectors No.”) (3 leaf stage, 9 examined) was 6. The “Tassel: Plants with fertile sectors No.” value (3 leaf stage, 9 examined) was 6, the “No. of plants Survived” value (3 leaf stage, 10 treated) was 9 and the “number of anthers /tassel, span over treatments” value (3–8 leaf stage treatments) was 35.6–521 /tassel. The “number of kernels on the ears, span over treatments” value (3–8 leaf stage treatments) was 10.9–49.0, the “Ear … No. of fertile sectors /ear” value (4 leaf stage) was 2.8** /ear and the “Ear … No. of kernels produced /ear” value (4 leaf stage) was 21.5** /ear. The “Ear … with fertile sectors %” value (4 leaf stage) was 100** %, the “No. of tassel branch Average” value (4 leaf stage) was 20.1 and the “Plant height (cm) Average” value (4 leaf stage) was 168 bc cm. The “Tassel: No. of fertile anthers extruded/tassel” value (4 leaf stage) was 111.5* /tassel, the “Tassel: No. of fertile sectors/tassel” value (4 leaf stage) was 1.5 /tassel and the “Tassel: Plants with fertile sectors %” value (4 leaf stage) was 64%. The “Ear … with fertile sectors No.” value (4 leaf stage, 11 examined) was 11, the “Tassel: Plants with fertile sectors No.” value (4 leaf stage, 11 examined) was 7 and the “No. of plants Survived” value (4 leaf stage, 11 treated) was 11. The “Ear … No. of fertile sectors /ear” value (5 leaf stage) was 1.6 /ear, the “Ear … No. of kernels produced /ear” value (5 leaf stage) was 40.4** /ear and the “Ear … with fertile sectors %” value (5 leaf stage) was 89* %. The “No. of tassel branch Average” value (5 leaf stage) was 13.9**, the “Plant height (cm) Average” value (5 leaf stage) was 170 c cm and the “Tassel: No. of fertile anthers extruded/tassel” value (5 leaf stage) was 139.6** /tassel. The “Tassel: No. of fertile sectors/tassel” value (5 leaf stage) was 3.0* /tassel, the “Tassel: Plants with fertile sectors %” value (5 leaf stage) was 100** % and the “Ear … with fertile sectors No.” value (5 leaf stage, 9 examined) was 8. The “Tassel: Plants with fertile sectors No.” value (5 leaf stage, 9 examined) was 9, the “No. of plants Survived” value (5 leaf stage, 9 treated) was 9 and the “frequency of fertile sectors on the tassels” value (5–7 leaf stages) was 100%. The “number of anthers on the tassels” value (5–7 leaf stages) was 140–521 /tassel, the “number of kernels on the ears” value (5–7 leaf stages) was 40.4–47.5 /ear and the “Ear … No. of fertile sectors /ear” value (6 leaf stage) was 1.7 /ear. The “Ear … No. of kernels produced /ear” value (6 leaf stage) was 45.5** /ear, the “Ear … with fertile sectors %” value (6 leaf stage) was 90* % and the “No. of tassel branch Average” value (6 leaf stage) was 14.5**. For the same molecule, the “Plant height (cm) Average” value (6 leaf stage) was 165 bc cm, the “Tassel: No. of fertile anthers extruded/tassel” value (6 leaf stage) was 521 /tassel and 521.1** /tassel and the “Tassel: No. of fertile sectors/tassel” value (6 leaf stage) was 5.7** /tassel. For the same molecule, the “Tassel: Plants with fertile sectors %” value (6 leaf stage) was 100** %, the “Ear … with fertile sectors No.” value (6 leaf stage, 10 examined) was 9 and the “Tassel: Plants with fertile sectors No.” value (6 leaf stage, 10 examined) was 10. The “No. of plants Survived” value (6 leaf stage, 10 treated) was 10, the “Ear … No. of fertile sectors /ear” value (7 leaf stage) was 1.8 /ear and the “Ear … No. of kernels produced /ear” value (7 leaf stage) was 47.5** /ear. The “Ear … with fertile sectors %” value (7 leaf stage) was 82%, the “No. of tassel branch Average” value (7 leaf stage) was 14.3** and the “Plant height (cm) Average” value (7 leaf stage) was 168 bc cm. The “Tassel: No. of fertile anthers extruded/tassel” value (7 leaf stage) was 267.3** /tassel, the “Tassel: No. of fertile sectors/tassel” value (7 leaf stage) was 9.6** /tassel and the “Tassel: Plants with fertile sectors %” value (7 leaf stage) was 100** %. For the same molecule, the “Ear … with fertile sectors No.” value (7 leaf stage, 11 examined) was 9, the “Tassel: Plants with fertile sectors No.” value (7 leaf stage, 11 examined) was 11 and the “No. of plants Survived” value (7 leaf stage, 11 treated) was 11. The “Ear … No. of fertile sectors /ear” value (8 leaf stage) was 2.3** /ear, the “Ear … No. of kernels produced /ear” value (8 leaf stage) was 10.9* /ear and the “Ear … with fertile sectors %” value (8 leaf stage) was 92** %. The “No. of tassel branch Average” value (8 leaf stage) was 20.4*, the “Plant height (cm) Average” value (8 leaf stage) was 137 a cm and the “Tassel: No. of fertile anthers extruded/tassel” value (8 leaf stage) was 283.2** /tassel. For the same molecule, the “Tassel: No. of fertile sectors/tassel” value (8 leaf stage) was >18.6** /tassel, the “Tassel: Plants with fertile sectors %” value (8 leaf stage) was 100** % and the “Ear … with fertile sectors No.” value (8 leaf stage, 12 examined) was 11. For the same molecule, the “Tassel: Plants with fertile sectors No.” value (8 leaf stage, 12 examined) was 12 and the “No. of plants Survived” value (8 leaf stage, 12 treated) was 12.

— patent US7135615B2, “Chromosome doubling method” (The Curators of the University of Missouri, priority 2001, dated 2006)
